Experimental findings from publication PMC6039563, “Functional Identification and Characterization of the Diuretic Hormone 31 (DH31) Signaling System in the Green Shore Crab, Carcinus maenas” (Frontiers in Neuroscience, 2018) are described below.

Ends that are not written are not given here.

The target of test [1] is T1, C. maenas DH31R (Carcinus maenas, UniProt A0A345BTT1).
T1 sequence (A0A345BTT1 1-442): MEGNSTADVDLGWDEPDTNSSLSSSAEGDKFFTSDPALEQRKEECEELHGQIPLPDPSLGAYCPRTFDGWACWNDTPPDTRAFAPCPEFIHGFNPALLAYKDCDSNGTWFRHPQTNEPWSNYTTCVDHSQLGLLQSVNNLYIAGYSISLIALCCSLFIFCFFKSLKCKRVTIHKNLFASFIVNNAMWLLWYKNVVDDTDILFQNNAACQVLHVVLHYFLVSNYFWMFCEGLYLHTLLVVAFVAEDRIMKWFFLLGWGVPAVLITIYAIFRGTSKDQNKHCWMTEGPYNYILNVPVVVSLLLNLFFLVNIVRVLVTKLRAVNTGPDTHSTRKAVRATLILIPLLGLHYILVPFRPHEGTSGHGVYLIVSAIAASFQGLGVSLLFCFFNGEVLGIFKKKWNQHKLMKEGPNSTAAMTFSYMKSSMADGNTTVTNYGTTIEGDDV
The experiment in a line: aequorin luminescence Ca2+ mobilization assay, CHO-K1-Aeq-Gα16 cells transiently expressing DH31R. In kind it is cell-based. As to conditions: for EC50: read-out: EC50 of luminescence response; for luminescence response / activation of DH31R: DH31R-transfected CHO-K1-Aeq cells, tested up to micromolar levels. How it is done:
(§1) Cells were then diluted 10-fold prior to assay.
Amino acid sequences are shown in Supplementary Table S2. […] Receptor responses were normalized against total Ca^2+ luminescence.

The target in test [2] is T1, C. maenas DH31R. In words: cell-based. As to the method:
as §1
Amino acid sequences are shown in Supplementary Table S2. […] Ca^2+ evoked luminescence was recorded for 40 s, followed by cell lysis (injection of 0.3% Triton-X 100 in BSA medium), and light emission recorded for a further 10 s. […] Receptor responses were normalized against total Ca^2+ luminescence.

[3] abbreviates: CHO-K1-Aeq-Gα16 cells transiently expressing DH31R, simultaneously performed experiments with three DH31s (Figure 3 main panel), means of n = 4.

For “GLDLGLGRGFSGSQAAKHLMGLAAANFAGGP-NH2 [Tribolium castaneum DH31]”, the EC50 in test [1] (setting [3]) was ~30 nM. In the case of “GLDLGLSRGFSGSQAAKHLMGLAAANYAGGP-NH2 [Diploptera punctata DH31]”, the EC50 in test [1] (setting [3]) was ~30 nM. In the case of “GLDMGLGRGFSGSQAAKHLMGLAAANYAGGP-NH2 [C. maenas DH31]”, the EC50 in test [1] (CHO-K1-Aeq-Gα16 cells transfected with DH31R, Figure 3 inset, independent set of transfections, means of N = 4) was ~15 nM; in test [1] (setting [3]), ~30 nM; in test [2], ~15 nM. For “MQRPQGPSLSVANPIEVLRSRLLLEIARRRMKEQDASRVSKNRQYLQQIG [R. prolixus CRF-like DH, Rhodnius prolixus corticotropin releasing factor-like diuretic hormone (I. Orchard, Toronto)]”, in test [1], the “luminescence response / activation of DH31R” value is recorded as “No luminescence responses”. On to “NSELINSLGLPKVMNDA-NH2 [C. maenas PDH-1, C. maenas pigment dispersing hormone-1 (Liverpool University)]”, for which the “luminescence response / activation of DH31R” value is listed as “No luminescence responses” in test [1] and “does not activate” in test [1] (listed as PDH-1).
